Patent US20180356397A1, “MIMICRY OF NEUROINFLAMMATORY MICROENVIRONMENTS AND METHODS OF USE AND MANUFACTURING THEREOF” (priority 2017, published 2018)

Experiments:
[1] = test system: neutrophils co-cultured with A-beta activated microglia; assay: neutrophil recruitment toward soluble A-beta activated microglia (co-culture in microfluidic device); assay type: cell-based, human; details: for recruiting of neutrophils in the recapitulated AD environment: microglia-derived chemokines by A-beta stimulation; for higher neutrophil migration in central chamber: soluble A-beta 2.2 uM, 6 hours
Description: Microglial cells are resident brain immune cells and stimulated by soluble A-beta42, which is a signature of human AD neurotoxic peptide. Based on our previous observation of neutrophil accumulation on A-beta plaques in in vivo, we hypothesize that A-beta activated microglial cells has a critical role in recruiting neutrophil. Stimulated microglial cells can release various types of chemokines and/or cytokines to increase inflammatory behavior or to clear A-beta in inflamed region. Furthermore, those secreted chemokines and/or cytokines can recruit other cell types including peripheral immune cells (FIG. 9A). To modulate this whole process, we established an in vitro AD brain-blood model (ADBBM) using microglia and neutrophil to mimic the brain microenvironment. To accommodate the different cells separately in a single microfluidic platform, we employed mechanically separated two chambers, which are connected through neutrophil specific migration channels (10×5×500 μm in width, height, and length) forming gradients of chemokines and/or cytokines (FIG. 9B).
Compared to a parallel configuration having equal surface areas for cell loading and cell collection, the asymmetric configuration of the current microfluidic device 10 has a small central cell collecting compartment (central chamber 30), which is smaller than a large annular cell loading compartment (annular chamber 50) by a factor of 3, 4, 5, 6, 7, 8, 9, 10 or greater. […] This enhances the gradient formation and detection of recruitment. The long and thin migration channels 60 can block spontaneous entrance of inactivated neutrophil through mechanical constraints. Using this platform, we could culture microglial cells for extended periods to accumulate enough soluble factors and could observe neutrophil signature movement at single cell resolution, in real-time. Red membrane dye stained microglial cells plated first in central chamber 30 and incubated for 3 days with soluble A-beta to modulate chemokine/cytokine enriched AD microenvironment. Freshly isolated neutrophil labeled with green membrane dye plated on annular chamber 50 and incubated under microscope to observe their movement and accumulation in central chamber 30. Precise numbers of neutrophils are reproducibly loaded and uniformly distributed in annular chamber 50 and this design allows us to evaluate the response of neutrophil to various types of chemokines and/or cytokines. We tested 200 independent conditions at the same time, by using real time imaging of process in an array of twenty-five formatted on a single well plate 140 or an array of one-hundred nineteen formatted single well plate 140 (FIG. 7 and FIG. 8).
To validate the dependency of neutrophil migration toward soluble A-beta activated microglia, microglial cells plated on central chamber 30 with various cell numbers (5,000, 10,000, 20,000 cells). Microglial cells are pre-labeled with membrane dye according to manufacturer's protocol to observe their morphology change. After 24 hour incubation of microglia alone, prepared soluble A-beta (2.2 uM) with reduced 1% FBS Prigrowlll media were changed to incubate further for 48 hours. After 48 hours, freshly isolated neutrophil labeled with green membrane dye plated on annular chamber 50 and incubated on microscopic real time imaging chamber. Neutrophil (green) migration could be observed toward soluble A-beta activated microglia (red) cultured central chamber 30 after 6 hours (FIG. 11A). 2.4-, 1.2-times higher neutrophil migration could be observed in central chamber 30 in response to 10,000 and 20,000 cultured microglia in central chamber 30 by showing the dependency of neutrophil recruitment in cell numbers. […] By utilizing high-resolution and spatiotemporal controlled microscopic imaging method, we also can quantify the persistent movement of microglial cells in various stimulations. […]

U87 glioma line = assay: glioma migration/invasiveness in microfluidic device, alone or in co-culture with microglia; assay type: cell-based; details: glioma cells cultured alone
Description: Here, we reconstituted a microenvironment of boosted brain tumor invasion by inducing glioma migration by using EGF, a chemoattractant for glioma, and promoting the migration via the incorporation with microglia. We plated both glioma and microglia on the outer chamber and EGF in the central chamber, which are connected through migration channels (50×10×500 μm in width, height, and length) forming gradients of chemokines for glioma. We found PAI-1 is abundantly expressed on most glioma lines. Next, we culture the U87 glioma line, which has produced PAI-1, to investigate the hypothesis that glioma-secreted PAI-1 interacts with microglia to affect glioma migration. In co-culture with microglia in a microfluidic device, the invasiveness of PAI-1 expressing U87 cell lines was increased. […] This study has uncovered a mechanism by which glioma cells exploit microglia for increased invasiveness. Specifically, glioma-derived PAI-1 acts upon microglia, which then produces IL-6 to stimulate gliomas. The PAI-1/IL-6 loop is a potential therapeutic target for the currently incurable malignant gliomas.

human neutrophils = assay: microfluidic chemotactic model for neutrophil migration (platform validation with fMLP); assay type: cell-based; details: for neutrophils migrated back from chemoattractant / neutrophils migrated towards chemoattractant: persistence at 1 hour
Description: FIG. 10F. Neutrophil recruitment was quantified by comparing the fraction of cells inside the central chamber (CC) to the total number of cells in the corresponding angular chamber device (AC). The R.I. is calculated as R.I.=(CCDay i−CCDay 0)/ACDay i, where Day i is the number of cells in the central chamber and ADDay i is the number of cells in angular chamber. The recruitment index, R.I., is obtained by normalizing with the subtraction at ‘CCDay 0’ cell numbers.
We validated the assay by measuring the migration and accumulation of neutrophils toward a panel of known chemoattractant. To compare the effect of fMLP in various concentrations on neutrophil recruitment, we defined a neutrophil recruitment index, R.I. (FIG. 10B, FIG. 10F), representing the fraction of neutrophil recruited to the central chamber after loading fMLP in the central chamber. We compared the R.I. values under various soluble factors, (fMLP, A-beta, and media) (FIG. 10B) and could observe predominant neutrophil (green) recruitment with N-formyl-methionine-leucine-phenylalanine (fMLP) (10 nM) in central chamber 30 after 6 hours (FIG. 10A). A negligible number of cells entered central chamber in the absence of a chemoattractant by proving that the mechanical barrier 40 can exclude the spontaneous entrance of neutrophil. […] Neutrophils move through migration channels 60 at 18±5 μm/min and could reach central chamber in less than 30 min (FIG. 10G). We compared the migratory response of human neutrophils with various stimulators. […] Concentration-dependent changes in migration patterns in response to fMLP was primarily affect the migrating faction while there was no significant effect on persistent directionality.
(§1) Immortalized microglial cells (SV40-microglia) were purchased from Abm company (ABM Inc., Montreal, Canada). The cells were plated onto T25 cell culture flasks (BD Biosciences, San Jose, Calif., USA) and maintained in Prigrow III Medium (ABM Inc) supplemented with 50 mL FBS (Life Technologies) and 5 mL Pen/Strep (Invitrogen) in a CO2 cell culture incubator. Cell culture media were changed every 3 days until cells were confluent. For neutrophil isolation, human peripheral blood samples from healthy volunteers, aged 18 years and older, were purchased from InvivoGen. Peripheral blood was drawn in 10-ml tube containing a final concentration of 5 mM EDTA (Vacutainer; Becton Dickinson). Nucleated cells were isolated using a HetaSep gradient, followed by the EasySep Human Neutrophil Enrichment Kit (STEMCELL Technologies, Vancouver, Canada) according to the manufacturer's protocol.
After microglia loading, cells were recorded using time-lapse imaging using a fully automated Nikon TiE microscope with a heated incubator to 37° C. and 5% CO2 (10× magnification; Micro Device Instruments, Avon, Mass., USA). To achieve accurate cell tracking, the maximum time resolution of acquisition was 0.2 frames per second.
FIG. 10. Design and validation of a microfluidic chemotactic model for neutrophil migration. (10A) Neutrophils (green) instantly migrated along microchannels designed for neutrophils with a gradient of fMLP (10 nM) and accumulated in a central chamber, the source of fMLP. (10C) Time-lapse images show a simultaneous bi-directional migration of neurophils under the fMLP gradient on a single cellular level. The red arrows indicate persistent forward migration of neutrophils along the gradient of the chemoattractant and green arrows indicate the backward migration against the gradient. […] Combined data from n=5 independent experiments. Scale bars: (10A) 500 μm, (10C) 50 μm. Data represented as mean±SEM.

microglia = assay: A-beta stimulation of microglia and analysis of cytokine release / activation markers; assay type: cell-based, human
Description: To characterize the phenotype changes in microglia induced by soluble A-beta, individual microglial cells were monitored for three days using time-lapse imaging microscopy. […] Morphological changes could be observed at 48 hrs following cell seeding (FIG. 9C bottom, +A-beta). As determined by image analysis, microglial cells became large and switched into more amoeboid type as the length and area of microglial somata (cell bodies) increased in all direction (FIG. 9C). And filopodia, which is observed in resting mode microglia, could not be observed in A-beta stimulated microglia. Furthermore, exposure of microglia to soluble A-beta induced up-regulation of microglial activation markers such as CD11b (FIGS. 9D and 9E) and CD68 (FIG. 9F). […] Membrane stained microglial cells (red) immunostained with anti-CD68 to observe activation of microglial cells with A-beta.
As microglia are the predominant resident immune cells of the brain, we next determined the effects of the soluble A-beta AD microenvironment on the inflammatory activity of microglia. Exposure to soluble A-beta was associated with significant increases in chemokine release (FIG. 9B).
as §1
For immunofluorescent stain, we rinsed the cells in medium twice with DPBS. To fix, cells were incubated in fresh 4% paraformaldehyde aqueous solution (157-4, ElectronMicroscopy Sciences) for more than 15 minutes at RT followed by rinsing twice with DPBS. To permeabilize, cells were incubated in 0.1% Triton X-100 in PBST (phosphate buffered saline with 0.1% tween®20) for 15 minutes at RT. To block, cells were incubated in 3% human serum albumin for overnight in PBST at 4° C. After incubating with the primary antibody solutions for 24 hour at 4° C., the cells were washed five times. The following antibody (and dilutions) were used: anti-cd11b (1:100, Life Technologies).
Microfluidic devices 10 were cultured for 72 hours, followed by incubation in A-beta containing medium with fetal bovine serum reduced from 10% to 1%. Microglia culture on central chamber 30 were stimulated with A-beta (Sigma Aldrich) at 2.2 uM with […] serum for 72 hrs. The cytokine release profile was assayed with the Human Cytokine 37-membrane kit array (R&D systems) and the resulting cytokine release profiles were quantified with ImageJ analysis.
FIG. 9. Activation of microglial inflammation with A-beta: chemokine release, morphogenesis, and marker expression. […] Both the membrane area (9D) and the amounts of expressed CD11b (9E) increase in the activated microglia with A-beta. ndevice=3, ncell=150. Scale bars: 30 μm. All parameters are presented as mean±SEM.

human primary microglial = assay: microfluidic chemotaxis platform for microglial motility under soluble A-beta gradient; assay type: cell-based; details: soluble monomeric and oligomeric A-beta, picomolar to nanomolar concentrations
Description: Activated microglia initially take on various morphologies: rounded, ramified shapes, rods to amoeboid forms followed by motile activation, which complicates the visual tracking of individual cells. Previous in vitro attempts to study rat microglial migration in the presence of short-lived damaged axons could not establish long-lasting gradients and could not conclusively differentiate slow accumulation of microglia from heterogeneous activation and random navigation. We developed a novel, microfluidic chemotaxis platform to study the motility of those microglia selectively responding to stimuli in a regulated manner. To understand the specific roles of A-beta in microglial accumulation in the context of AD, we generated a week-long lasting soluble A-beta gradient, patterned insoluble surface-bound A-beta to mimic A-beta signature in AD brains, and isolated human primary microglial responding to A-beta in our platforms. We tested 200 independent conditions in a single batch, while using real time imaging of process in an array of twenty-five formatted single well plate. […] We also observed discernable co-localization of microglia to the sites of insoluble A-beta, representing A-beta plaques.

[2] = microglia exposed to soluble A-beta compared to microglia without A-beta

CCL2: microglia-derived chemokine released on A-beta stimulation
recruiting of neutrophils in the recapitulated AD environment [1]: effective for recruiting neutrophils

IL6: interleukin (IL)-6; microglia-derived cytokine, also used as recombinant protein
invasiveness of glioma cells (U87 glioma line): enhanced the invasiveness | recruiting of neutrophils in the recapitulated AD environment [1]: effective for recruiting neutrophils

IL8: microglia-derived chemokine released on A-beta stimulation
recruiting of neutrophils in the recapitulated AD environment [1]: effective for recruiting neutrophils

N-formyl-methionine-leucine-phenylalanine [fMLP]
neutrophils migrated back from chemoattractant (human neutrophils; 1 nM fMLP): 17.8±2.8% | neutrophils migrated towards chemoattractant (human neutrophils; 1 nM fMLP): 82.2±3.4% | magnitude of cell recruitment (recruitment index), 10 nM compared to 1 nM (human neutrophils; 10 nM fMLP compared to 1 nM fMLP, central chamber, 6 hours): 1.6 times | neutrophils migrated back from chemoattractant (human neutrophils; 10 nM fMLP): 11.5±1.7% | neutrophils migrated towards chemoattractant (human neutrophils; 10 nM fMLP): 88.5±3.8% | time to plateau of neutrophil response (human neutrophils; fMLP in central chamber): ≤ 6 h | decrease in the total fraction of migrating cells (human neutrophils; increasing fMLP from 10 nM to 1 μM): 63% | speed of neutrophils moving through migration channels (human neutrophils; migrating towards fMLP): 18±5 μm/min | time to reach central chamber (human neutrophils; migrating towards fMLP): less than 30 min

amyloid-beta [A-beta]
higher neutrophil migration in central chamber ([1]; 10,000 microglia in central chamber): 2.4 times | higher neutrophil migration in central chamber ([1]; 20,000 microglia in central chamber): 1.2 times | neutrophil migration ([1]; A-beta alone, no microglia): Negligible neutrophil migration | persistence of neutrophil migration ([1]; co-culture with soluble A-beta activated microglial cells): about 92% | microglial activation markers CD11b and CD68 (microglia; exposure of microglia to soluble A-beta, immunostaining): up-regulation | secretion of anti-inflammatory markers (IL-1RA, IL-4, IL-10, TGF-β) (microglia; microglia exposed to soluble A-beta): very low or no detectable | CCL2 concentration increase (microglia; [2]): 1.4 fold | IL-6 concentration increase (microglia; [2]): 1.9 fold | IL-8 concentration increase (microglia; [2]): 2.3 fold | chemokine release of CCL3/4, CCL5 (microglia; [2]): new chemokine release | microglial chemoattraction (human primary microglial): acting as a microglial chemoattractant

B1: CCL5: microglia-derived chemokine released on A-beta stimulation (protein, UniProt P13501 24-91, looked up)
C-C motif chemokine 5: SPYSSDTTPCCFAYIARPLPRAHIKEYFYTSGKCSNPAVVFVTRKNRQVCANPEKKWVREYINSLEMS
recruiting of neutrophils in the recapitulated AD environment [1]: effective for recruiting neutrophils
